In general, IC50 refers to the concentration that gives 50% inhibition.

Here are results for 19 molecules from patent US12240844B2 (Voronoi, Inc., priority 2019, dated 2025).

In experiment [1] the target is T1, human GST-DYRK1A (full length) (Homo sapiens, UniProt Q13627).
T1 construct: purified human GST-DYRK1A (full length, Thermo scientifics) enzyme; GST; purchased Thermo scientifics
In words: GST-DYRK1A enzyme inhibition, ADP-Glo kinase assay. The class given is biochemical. Particulars: read-out: DYRK1 IC50. The method, then:
(§1) In order to evaluate the inhibitory activity of the compounds according to the present invention on LRRK2, LRRK2 (G2019S), DYRK1, CLK1 and TTK kinases, the following experiment was performed.
(§2) Example compounds were reacted with the purified human GST-DYRK1A (full length, Thermo scientifics) enzyme to evaluate the enzyme inhibitory ability as follows. As the reaction buffer, the composition of 40 mM Tris-HCl pH 7.4, 20 mM MgCl2, 0.5 mg/mL BSA, and 50 uM DTT was used, and the reaction of all test materials was performed on the reaction buffer. During the test, the human GST-DYRK1A (full length, 10 ng) enzyme, the purified ATP (10 uM), and a specific substrate solution were reacted at 25° C. for 1 hour, and then the enzyme activity was identified using the in vitro ADP-Glo™ kinase assay (promega). Luminescence was measured by reacting the enzyme activity reaction solution, an ADP-Glo reaction solution and the enzyme potency detection solution in a ratio of 2:2:1. The degree of inhibition of enzyme activity according to the treatment concentrations of the respective compounds was calculated based on the fluorescence of the enzyme activity of a solvent control group that was not treated with the compound, where the concentration of each compound to inhibit enzyme activity inhibition by 50% was determined as an IC50 (nM) value. The IC50 of each compound was determined in triplicate data sets and obtained using Prism (version 7.01, GraphPad) software.
(§3) In the table below, the following designations were used for the evaluation of enzyme inhibitory ability.
A general note: ADP-Glo turns the ADP formed in a reaction into a luminescent signal.

The target of another experiment is T2, human GST-CLK1 (129-end) (Homo sapiens, UniProt P49759).
T2 construct: purified human GST-CLK1 (129-end, Signalchem) enzyme; GST; purchased Signalchem
In words: GST-CLK1 enzyme inhibition, ADP-Glo kinase assay. The class given is biochemical. Particulars: ATP 10 uM. The method, then:
as §1
as §2, with “GST-CLK1 (129-end, Signalchem)” for “GST-DYRK1A (full length, Thermo scientifics)”, “GST-CLK1 (129-end, 3” for “GST-DYRK1A (full length, 10”
as §3

T2 sequence (P49759 129-484 limits assumed): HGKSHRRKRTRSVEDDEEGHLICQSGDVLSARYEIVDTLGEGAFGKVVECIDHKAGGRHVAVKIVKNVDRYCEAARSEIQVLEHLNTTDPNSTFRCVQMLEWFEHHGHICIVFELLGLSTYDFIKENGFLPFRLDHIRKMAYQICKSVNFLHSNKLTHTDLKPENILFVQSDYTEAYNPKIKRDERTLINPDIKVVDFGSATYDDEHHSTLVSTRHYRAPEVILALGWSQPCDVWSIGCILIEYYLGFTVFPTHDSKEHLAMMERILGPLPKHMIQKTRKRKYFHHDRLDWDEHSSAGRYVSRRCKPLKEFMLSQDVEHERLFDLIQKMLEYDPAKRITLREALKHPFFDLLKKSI

Take `CC(C)Nc1cc(Nc2ccc(C(=O)N3CCOCC3)c3c2OCCO3)nc2[nH]cc(C(F)(F)F)c12` [Example 168, (8-((4-(isopropylamino)-3-(trifluoromethyl)-1H-pyrrolo[2,3-b]pyridin-6-yl)amino)-2,3-dihydrobenzo [b] [1,4]dioxin-5-yl)(morpholino) methanone]: the IC50 in experiment [1] is 301 to 1000 nM; against human GST-CLK1 (129-end), under 100 nM.
The like results for `COc1cc(S(=O)(=O)N2CCC(N3CCOCC3)CC2)ccc1Nc1cc(NC2CCCCC2)c2c(Cl)c[nH]c2n1` [Example 77, 3-chloro-N^4-cyclohexyl-N^6-(2-methoxy-4-((morpholinopiperidin-1-yl)sulfonyl)phenyl)-1H-pyrrolo[2,3-b]pyridine-4,6-diamine] were, in that order, 301 to 1000 nM and 301 to 1000 nM.
The like results for `CCOCCNc1cc(Nc2ccc(C(=O)N3CCOCC3)c3c2OCCO3)nc2[nH]cc(C(F)(F)F)c12` [Example 166, (8-((4-((2-ethoxyethyl)amino)-3-(trifluoromethyl)-1H-pyrrolo[2,3-b]pyridin-6-yl)amino)-2,3-dihydrobenzo[b] [1,4]dioxin-5-yl)(morpholino) methanone] were, in that order, 101 to 300 nM and 301 to 1000 nM.
Consider `CCCCNc1cc(Nc2ccc(C(=O)N3CCC(N4CCOCC4)CC3)c3c2OCCO3)nc2[nH]cc(C(F)(F)F)c12` [Example 170, (8-((4-(butylamino)-3-(trifluoromethyl)-1H-pyrrolo[2,3-b]pyridin-6-yl)amino)-2,3-dihydrobenzo[b] [1,4]dioxin-5-yl)(4-morpholinopiperidin-1-yl)methanone], for which the figures for the concentration for half-maximal inhibition (IC50) (in experiment [1]; on human GST-CLK1 (129-end)) were 301 to 1000 nM and under 100 nM, respectively.
The like results for `COc1cc(P(C)(C)=O)ccc1Nc1cc(C2CC2)c2c(C#N)c[nH]c2n1` [Example 230, 4-cyclopropyl-6-((4-(dimethylphosphoryl)-2-methoxyphenyl)amino)-1H-pyrrolo[2,3-b]pyridine-3-carbonitrile] were, in that order, 301 to 1000 nM and 301 to 1000 nM.
Regarding `N#Cc1c[nH]c2nc(Nc3ccc(C(=O)N4CCOCC4)c4c3OCCO4)cc(NC3CCC3)c12` [Example 36, 4-(cyclobutylamino)-6-((8-(morpholine-4-carbonyl)-2,3-dihydrobenzo[b] [1,4]dioxin-5-yl)amino)-1H-pyrrolo[2,3-b]pyridine-3-carbonitrile], the IC50 (in experiment [1]; on human GST-CLK1 (129-end)) was 301 to 1000 nM each time.
`O=C(c1ccc(Nc2cc(NC3CCC3)c3c(C(F)(F)F)c[nH]c3n2)c2c1OCCO2)N1CCOCC1` [Example 175, (8-((4-(cyclobutylamino)-3-(trifluoromethyl)-1H-pyrrolo[2,3-b]pyridin-6-yl)amino)-2,3-dihydrobenzo[b] [1,4]dioxin-5-yl)(morpholino) methanone 2,2,2-trifluoroacetate]: the half-inhibitory concentration (IC50) is 301 to 1000 nM in experiment [1] and 101 to 300 nM against human GST-CLK1 (129-end).
The like results for `COc1cc(S(C)(=O)=O)ccc1Nc1cc(NC2CCCCC2)c2c(Cl)c[nH]c2n1` [Example 86, 3-chloro-N^4-cyclohexyl-N^6-(2-methoxy-4-(methylsulfonyl)phenyl)-1H-pyrrolo[2,3-b]pyridine-4,6-diamine] were, in that order, 301 to 1000 nM and 301 to 1000 nM.
The like results for `CCOCCNc1cc(Nc2ccc(C(=O)N3CCC(N4CCOCC4)CC3)c3c2OCCO3)nc2[nH]cc(C(F)(F)F)c12` [Example 167, (8-((4-((2-ethoxyethyl)amino)-3-(trifluoromethyl)-1H-pyrrolo[2,3-b]pyridin-6-yl)amino)-2,3-dihydrobenzo[b] [1,4]dioxin-5-yl)(4-morpholinopiperidin-1-yl)methanone] were, in that order, under 100 nM and under 100 nM.
`CCNc1cc(Nc2ccc(C(=O)N3CCOCC3)c3c2OCO3)nc2[nH]cc(C#N)c12` [Example 33]: the figures for the IC50 (in experiment [1]; at human GST-CLK1 (129-end)) were 301 to 1000 nM and 101 to 300 nM, respectively.
For `CCNc1cc(Nc2ccc(C(=O)N3CCC(N4CCOCC4)CC3)c3c2OCO3)nc2[nH]cc(C#N)c12` [Example 34, 4-(ethylamino)-6-((7-(4-morpholinopiperidine-1-carbonyl)benzo[d] [1,3]dioxol-4-yl)amino)-1H-pyrrolo[2,3-b]pyridine-3-carbonitrile] the same measures were under 100 nM and under 100 nM.
The like results for `CCNc1cc(Nc2ccc(C(=O)N3CCN(C4COC4)CC3)c3c2OCCO3)nc2[nH]cc(C#N)c12` [Example 35, 4-(ethylamino)-6-((8-(4-(oxetan-3-yl)piperazine-1-carbonyl)-2,3-dihydrobenzo[b] [1,4]dioxin-5-yl)amino)-1H-pyrrolo[2,3-b]pyridine-3-carbonitrile] were, in that order, 101 to 300 nM and 101 to 300 nM.
The like results for `COCCNc1cc(Nc2ccc(S(=O)(=O)N3CCC(N4CCOCC4)CC3)cc2OC)nc2[nH]cc(Cl)c12` [Example 78, 3-chloro-N^6-(2-methoxy-4-((morpholinopiperidin-1-yl)sulfonyl)phenyl)-N^4-(2-methoxyethyl)-1H-pyrrolo[2,3-b]pyridine-4,6-diamine] were, in that order, 301 to 1000 nM and 301 to 1000 nM.
For `COc1cc(S(=O)(=O)N2CCC(N3CCOCC3)CC2)ccc1Nc1cc(NCCS(C)(=O)=O)c2c(Cl)c[nH]c2n1` [Example 79, 3-chloro-N^6-(2-methoxy-4-((morpholinopiperidin-1-yl)sulfonyl)phenyl)-N^4-(2-(methylsulfonyl)ethyl)-1H-pyrrolo[2,3-b]pyridine-4,6-diamine], the IC50 (in experiment [1]; against human GST-CLK1 (129-end)) was under 100 nM in each case.
As for `COCCNc1cc(Nc2ccc(S(=O)(=O)N3CCOCC3)cc2OC)nc2[nH]cc(Cl)c12` [Example 71, 3-chloro-N^6-(2-methoxy-4-(morpholinosulfonyl)phenyl)-N^4-(2-methoxyethyl)-1H-pyrrolo[2,3-b]pyridine-4,6-diamine], the half-inhibitory concentration (IC50) (in experiment [1]; at human GST-CLK1 (129-end)) was 301 to 1000 nM each time.
As for `O=C(c1ccc(Nc2cc(NC3CCCCC3)c3c(Cl)c[nH]c3n2)c2c1OCCO2)N1CCOCC1` [Example 61, (8-((3-chloro-4-(cyclohexylamino)-1H-pyrrolo[2,3-b]pyridin-6-yl)amino)-2,3-dihydrobenzo[b] [1,4]dioxin-5-yl)(morpholino) methanone], the concentration for half-maximal inhibition (IC50) (in experiment [1]; on human GST-CLK1 (129-end)) was 301 to 1000 nM each time.
For `COCCNc1cc(Nc2ccc(S(C)(=O)=O)cc2OC)nc2[nH]cc(Cl)c12` [Example 87, 3-chloro-N^6-(2-methoxy-4-(methylsulfonyl)phenyl)-N^4-(2-methoxyethyl)-1H-pyrrolo[2,3-b]pyridine-4,6-diamine], the IC50 (in experiment [1]; on human GST-CLK1 (129-end)) was 301 to 1000 nM each time.
For `CCCCNc1cc(Nc2ccc(C(=O)N3CCOCC3)c3c2OCCO3)nc2[nH]cc(C(F)(F)F)c12` [Example 169, (8-((4-(butylamino)-3-(trifluoromethyl)-1H-pyrrolo[2,3-b]pyridin-6-yl)amino)-2,3-dihydrobenzo [b] [1,4]dioxin-5-yl)(morpholino) methanone], the IC50 (in experiment [1]; against human GST-CLK1 (129-end)) was 301 to 1000 nM in each case.
With `O=C(c1ccc(Nc2cc(NC3CCC3)c3c(C(F)(F)F)c[nH]c3n2)c2c1OCCO2)N1CCC(N2CCOCC2)CC1` [Example 176, (8-((4-(cyclobutylamino)-3-(trifluoromethyl)-1H-pyrrolo[2,3-b]pyridin-6-yl)amino)-2,3-dihydrobenzo[b] [1,4]dioxin-5-yl)(4-morpholinopiperidin-1-yl)methanone], the IC50 (in experiment [1]; against human GST-CLK1 (129-end)) was under 100 nM each time.
